Patent publication US20100292185A1, “BETA-LACTAMASE INHIBITORS” (priority 2009, published 2010)
pIC50: −log10 of the molar value. Counter-ions that a name gives are not always drawn. Like-named read-outs stand apart in the source and are kept apart here.

What was measured:
SHV-5 β-lactamase = target: T1, SHV-5 β-lactamase (Klebsiella pneumoniae, UniProt P0A3M1); assay: β-lactamase enzyme inhibition assay (nitrocefin substrate), SHV-5; format: biochemical
T1 construct: expressed as native untagged proteins; made in house; host or cells: E. coli BL21(DE3)
Procedure, shortened: (§1)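 Native untagged enzymes were expressed in E. coli BL21(DE3) and purified by cation exchange and gel filtration. Compounds (100–0.005 μM in PBS pH 7.0) were preincubated with enzyme for 10 min at 37 °C, then 100 μM nitrocefin (final) was added. IC50 was derived from the maximum hydrolysis rate at 486 nm, read kinetically for 10 min, relative to uninhibited controls.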

CTX-M15 β-lactamase = target: T2, CTX-M15 β-lactamase (Escherichia coli, UniProt Q9EXV5); assay: β-lactamase enzyme inhibition assay (nitrocefin substrate), CTXM-15; format: biochemical
T2 construct: expressed as native untagged proteins; made in house; host or cells: E. coli BL21(DE3)
Procedure, shortened: as §1

p99 AmpC β-lactamase = target: T3, p99 AmpC β-lactamase (Enterobacter cloacae, UniProt P05364); assay: β-lactamase enzyme inhibition assay (nitrocefin substrate), P99 AmpC; format: biochemical
T3 construct: expressed as native untagged proteins; made in house; host or cells: E. coli BL21(DE3)
Procedure, shortened: as §1

KPC-2 β-lactamase = target: T4, KPC-2 β-lactamase (Klebsiella pneumoniae, UniProt Q9F663); assay: β-lactamase enzyme inhibition assay (nitrocefin substrate), KPC-2; format: biochemical
T4 construct: expressed as native untagged proteins; made in house; host or cells: E. coli BL21(DE3)
Procedure, shortened: as §1

[1] = target: T5, VIM-2 metallo β-lactamase (Pseudomonas aeruginosa, UniProt Q9K2N0); assay: β-lactamase enzyme inhibition assay (nitrocefin substrate), VIM-2; format: biochemical; conditions: nitrocefin 100 μM, 37° C., PBS pH 7.0; read-out: VIM-2 IC50
T5 construct: made in house
Procedure: Isolation of β-lactamases. For SHV-5, p99 AmpC, KPC-2 and CTX-M15 β-lactamases, E. coli BL21(DE3) bacterial cells carrying expression plasmids (expressed as native untagged proteins) for the individual β-lactamases were grown in 1 L of Superbroth (Teknova Inc. Hollister, Calif.) supplemented with 100 μg/ml kanamycin and 1×5052 (0.5% glycerol, 0.05% glucose and 0.2% α-lactose) at 35° C. for 18-20 hours. Cells were harvested by centrifugation (4,000×g, 4° C., 20 min), and resuspended in 50 ml of 10 mM HEPES pH 7.5 (1/20 of the initial volume). The cells were lysed by sonication (5 pulses of 45 seconds) at 45 W on ice. The lysates were clarified by centrifugation at 10,000×g for 40 minutes at 4° C. Samples were diluted 5-fold in 50 mM sodium acetate pH 5.0, stored overnight at 4° C., after which they were centrifuged at 10,000×g for 30 minutes to clarify, and filtered through 0.45 μm filters. The samples were loaded onto a 5 ml Capto S sepharose cation exchange column (GE Healthcare) pre-equilibrated with 50 mM sodium acetate pH 5.0. The column was washed with 5 column volumes of 50 mM sodium acetate pH 5.0 to wash out unbound protein and a linear gradient of NaCl (0 to 500 mM) was used to elute the protein (over 16 CV) from the column. Fractions were assayed for β-lactamase activity using Centa (Calbiochem, Gibbstown, N.J.) as a reporter β-lactamase substrate for activity in the isolated fractions. Active fractions were pooled, concentrated and further purified by gel filtration chromatography on a Superdex 75 prep grade gel filtration column (GE Healthcare, Piscataway, N.J.) pre-equilibrated in 50 mM Hepes pH 7.5, 150 mM NaCl. Active fractions were pooled concentrated, quantitated by BCA protein determination (Thermo Scientific, Rockford, Ill.), and frozen at −80° C. in 20% glycerol until use.
For VIM-2 metallo (β-lactamase, the procedure was identical with the following exceptions: 1) the protein was not pH adjusted to pH 5 with 50 mM sodium acetate, 2) the chromatography step was changed to a 5 ml Q sepharose anion exchange column pre-equilibrated with 50 mM Hepes pH 7.5, and 3) elution of the protein was achieved by a linear gradient of NaCl (0-600 mM). Finally, the VIM-2 purification required a second run (3rd step) on the Q sepharose anion exchange column to achieve acceptable purity (>90%).
(§2) β-lactamase Inhibition. To determine the level of inhibition of β-lactamase enzymes, compounds were diluted in PBS at pH 7.0 to yield concentrations between 100 and 0.005 μM in microtiter plates. An equal volume of diluted enzyme stock was added, and the plates were incubated at 37° C. for 10 min. Nitrocefin solution was then dispensed as substrate into each well at a final concentration of 100 μM, and the plates were immediately read with the kinetic program at 486 nm for 10 min on the SPECTRAMAX® Plus^384 (high-throughput microplate spectrophotometer; Molecular Devices Corp., Sunnyvale, Calif.). Maximum rates of metabolism were then compared to those in control wells (without inhibitors), and percentages of enzyme inhibition were calculated for each concentration of inhibitor. The concentration of inhibitor needed to reduce the initial rate of hydrolysis of substrate by 50% (IC50) was calculated as the residual activity of β-lactamase at 486 nm using the SoftMax Pro 5.0 software (Molecular Devices Corp.).
Using the methodology described above, examples of the current invention were evaluated for their ability to inhibit β-lactamase enzymes. The results of these assays are summarized in Table 2 for representative enzymes across different subtypes (note SHV-5 and CTXM-15 exemplify different subclasses of Ambler Class A Extended Spectrum Beta Lactamases, KPC-2 exemplifies Class A carbapenemases, P99 represents chromosomal Class C AmpC, VIM-2 exemplifies subclass B1 of metallo-β-lactamases, and OXA-23 represents chromosome-encoded Class D oxacillin-hydrolyzing β-lactamases), NT=not tested.

OXA-23 β-lactamase = target: T6, OXA-23 β-lactamase (Acinetobacter baumannii, UniProt Q9L4P2); assay: β-lactamase enzyme inhibition assay (nitrocefin substrate), OXA-23 crude extract; format: biochemical; conditions: nitrocefin 100 μM, 37° C., PBS pH 7.0; read-out: OXA-23 IC50
T6 construct: crude β-lactamase extracts were prepared from 20 ml overnight cultures; endogenous in cells; host or cells: Acinetobacter baumannii cells containing OXA-23 (crude freeze-thaw extract)
Procedure: For OXA-23 β-lactamase, crude β-lactamase extracts were prepared from 20 ml overnight cultures with shaking. Acenitobacter baumanni cells containing OXA-23 were further diluted 10-fold and grown to mid-log phase (OD at 600 nm, 0.5-0.8) in Mueller-Hinton II (MH-II) broth at 37° C. The cells were pelleted at 5000 g, washed and resuspended in 2 mL PBS pH 7.0. The β-lactamases were extracted by four cycles of freezing and thawing followed by centrifugation. β-lactamase activity in the extracts was measured with the chromogenic cephalosporin nitrocefin. The amount of protein in each β-lactamase preparation was determined by the bicinchoninic acid (BCA) assay.
as §2

[2] = system: E. coli expressing the Class A ESBL SHV-5; assay: In vitro antibacterial assay of β-lactamase inhibition (broth microdilution MIC), E. coli SHV-5; format: cell-based
Procedure, shortened: (§3)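 Broth microdilution in cation-adjusted Mueller Hinton broth; strains pre-grown 3–5 h with 50 μg/mL ampicillin. Test compounds 2-fold serially diluted to a final 8–0.015 μg/mL alongside a β-lactam, CLSI inoculum. MIC read visually after 16–20 h at 37° C.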

[3] = system: K. pneumoniae expressing the Class A Extended Spectrum Beta-Lactamase (ESBL) CTX-M-15; assay: In vitro antibacterial assay of β-lactamase inhibition (broth microdilution MIC), K. pneumoniae CTX-M-15; format: cell-based
Procedure, shortened: as §3

[4] = system: E. cloacae expressing the Class C P99+; assay: In vitro antibacterial assay of β-lactamase inhibition (broth microdilution MIC), E. cloacae P99+; format: cell-based
Procedure, shortened: as §3

[5] = system: K. pneumoniae expressing the Class A carbapenemase KPC-2; assay: microbe, parasite or virus in culture; format: cell-based
Procedure, shortened: as §3

[6] = system: P. aeruginosa expressing the Class B metallo β-lactamase VIM-2; assay: In vitro antibacterial assay of β-lactamase inhibition (broth microdilution MIC), P. aeruginosa VIM-2; format: cell-based; conditions: in presence of Ceftazidime 16 μg/mL (Examples 1-56)
Procedure, shortened: as §3

[7] = nitrocefin 100 μM, 37° C., PBS pH 7.0, read-out: P99 AmpC IC50
[8] = in presence of Ceftazidime 8 μg/ml (Examples 1-56)
[9] = in presence of Piperacillin 16 μg/ml (Examples 57-65)

T4 sequence (Q9F663 25-293 limits assumed): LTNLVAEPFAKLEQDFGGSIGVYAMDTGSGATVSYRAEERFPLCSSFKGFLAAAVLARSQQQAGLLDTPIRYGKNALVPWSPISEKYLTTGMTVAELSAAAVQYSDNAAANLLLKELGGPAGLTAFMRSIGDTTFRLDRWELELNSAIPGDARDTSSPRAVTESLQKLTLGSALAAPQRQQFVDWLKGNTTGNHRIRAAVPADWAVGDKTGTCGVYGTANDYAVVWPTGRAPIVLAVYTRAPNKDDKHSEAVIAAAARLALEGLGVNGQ
T3 sequence (P05364 21-381): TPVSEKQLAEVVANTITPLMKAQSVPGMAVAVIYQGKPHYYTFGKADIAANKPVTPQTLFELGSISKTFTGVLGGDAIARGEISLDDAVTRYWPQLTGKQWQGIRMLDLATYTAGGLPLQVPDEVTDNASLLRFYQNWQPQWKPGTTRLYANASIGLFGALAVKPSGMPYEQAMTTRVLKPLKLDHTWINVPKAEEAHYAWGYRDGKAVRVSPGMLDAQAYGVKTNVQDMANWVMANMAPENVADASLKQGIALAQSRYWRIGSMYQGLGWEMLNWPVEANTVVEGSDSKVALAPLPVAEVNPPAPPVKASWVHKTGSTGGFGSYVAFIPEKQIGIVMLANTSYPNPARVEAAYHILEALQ
T1 sequence (P0A3M1 22-286): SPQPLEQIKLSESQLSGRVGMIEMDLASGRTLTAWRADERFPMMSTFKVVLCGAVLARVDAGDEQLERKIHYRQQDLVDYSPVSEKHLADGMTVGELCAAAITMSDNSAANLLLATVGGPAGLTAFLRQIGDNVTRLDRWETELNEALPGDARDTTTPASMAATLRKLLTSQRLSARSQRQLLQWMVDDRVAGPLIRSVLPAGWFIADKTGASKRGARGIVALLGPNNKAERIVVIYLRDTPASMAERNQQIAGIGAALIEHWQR
T2 sequence (Q9EXV5 entry or part of it): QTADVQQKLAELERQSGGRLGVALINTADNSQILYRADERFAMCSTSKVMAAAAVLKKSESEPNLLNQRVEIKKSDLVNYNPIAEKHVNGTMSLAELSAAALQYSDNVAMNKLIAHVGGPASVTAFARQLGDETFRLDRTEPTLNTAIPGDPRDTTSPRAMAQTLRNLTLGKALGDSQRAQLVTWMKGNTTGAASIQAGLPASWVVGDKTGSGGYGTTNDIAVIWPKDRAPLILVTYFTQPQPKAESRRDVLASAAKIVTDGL
T6 sequence (Q9L4P2 18-273): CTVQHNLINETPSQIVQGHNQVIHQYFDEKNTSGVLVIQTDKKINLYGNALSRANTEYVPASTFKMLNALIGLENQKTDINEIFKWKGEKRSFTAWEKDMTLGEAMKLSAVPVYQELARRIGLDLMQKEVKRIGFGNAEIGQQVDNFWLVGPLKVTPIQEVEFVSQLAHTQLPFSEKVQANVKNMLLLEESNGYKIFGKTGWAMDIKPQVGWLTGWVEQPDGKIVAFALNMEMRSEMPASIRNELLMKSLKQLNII

SMILES	pIC50 (SHV-5 β-lactamase)	pIC50 (CTX-M15 β-lactamase)	pIC50 (p99 AmpC β-lactamase; [7])	pIC50 (KPC-2 β-lactamase)	pIC50 [1]	pIC50 (OXA-23 β-lactamase)	MIC of example compound, E. coli SHV-5 [2, 8] [µg/mL]	MIC of example compound, K. pneumoniae CTX-M-15 [3, 8] [µg/mL]	MIC of example compound, E. cloacae P99+ [4, 8] [µg/mL]	MIC of example compound, K. pneumoniae KPC-2 [5, 8] [µg/mL]	MIC of example compound, P. aeruginosa VIM-2 [6] [µg/mL]	MIC of example compound, E. coli SHV-5 [2, 9] [µg/mL]	MIC of example compound, K. pneumoniae CTX-M-15 [3, 9] [µg/mL]	MIC of example compound, E. cloacae P99+ [4, 9] [µg/mL]	MIC of example compound, K. pneumoniae KPC-2 [5, 9] [µg/mL]	pIC50 (p99 AmpC β-lactamase)
NCc1cccc(C(=O)N[C@@H](Cc2cccc(C(=O)O)c2O)B(O)O)c1 [Example 1, 2(R)-3-[2-(3-(Aminomethyl)benzoylamino)-2-borono-ethyl]-2-hydroxy-benzoic acid hydrochloride]	6.19	8.52	9.00	7.70	6.82	7.19	4	1	0.25	0.125	8	–	–	–	–	–
Cl.NCc1ccc(C(=O)N[C@@H](Cc2cccc(C(=O)O)c2O)B(O)O)cc1 [Example 2, 2(R)-3-[2-(4-(Aminomethyl)benzoylamino)-2-borono-ethyl]-2-hydroxy-benzoic acid hydrochloride]	< 6.00	8.70	8.52	7.89	7.66	< 6.00	8	2	0.25	0.015	8	–	–	–	–	–
O=C(N[C@@H](Cc1cccc(C(=O)O)c1O)B(O)O)c1ccc(CN2CCOCC2)cc1 [Example 3, 2(R)-3-[2-(4-(Morpholinomethyl)benzoylamino)-2-borono-ethyl]-2-hydroxy-benzoic acid formate]	6.44	8.40	8.52	7.85	6.07	< 6.00	8	2	4	0.12	>8	–	–	–	–	–
Cl.Nc1cc(C(=O)N[C@@H](Cc2cccc(C(=O)O)c2O)B(O)O)ccn1 [Example 8, (2R)-3-{2-[(2-Amino-pyridine-4-carbonyl)-amino]-2-borono-ethyl}-2-hydroxy-benzoic acid]	7.54	7.55	8.70	8.30	6.15	6.84	1	0.5	0.5	0.06	–	–	–	–	–	–
O=C(Cc1ccc(CN2CCCC2)cc1)N[C@@H](Cc1cccc(C(=O)O)c1O)B(O)O [Example 38, (1R)-[2-(4-pyrrolin-1-ylmethyl-phenyl)-acetylamino]-(3-carboxy-2-hydroxy)benzyl-methylboronic acid formate]	8.30	8.52	8.05	8.22	6.07	6.63	0.5	0.25	0.5	0.03	–	–	–	–	–	–
Nc1cccc[n+]1Cc1ccc(CC(=O)N[C@@H](Cc2cccc(C(=O)O)c2O)B(O)O)cc1 [Example 40, (1R)-2-amino-(4-{[2-(3-carboxy-2-hydroxy-phenyl-borono-ethylcarbamoyl]-methyl}-benzyl)-pyridinium formate]	7.70	8.40	8.00	6.19	< 6.00	6.88	0.25	0.25	2	–	>8	–	–	–	–	–
Cl.NCc1cc(CC(=O)N[C@@H](Cc2cccc(C(=O)O)c2O)B(O)O)ccn1 [Example 63, (2R)-3-{2-[(2-Aminomethyl-pyridin-4-yl-acetyl)-amino]-2-borono-ethyl}-2-hydroxy-benzoic acid hydrochloride]	8.10	8.00	8.05	7.62	6.21	6.27	–	–	–	–	–	0.06	>16	4	0.125	–
N=C(N)NCc1cc(CC(=O)N[C@@H](Cc2cccc(C(=O)O)c2O)B(O)O)ccn1 [Example 64, (2R)-3-{2-[(2-Guanidinomethyl-pyridin-4-yl-acetyl)-amino]-2-borono-ethyl}-2-hydroxy-benzoic acid formate]	8.52	8.52	–	7.77	6.26	6.75	–	–	–	–	–	0.125	>16	4	0.125	8.10
